EP0481320A1, “Novel cyclobutane derivatives” (NIPPON KAYAKU KABUSHIKI KAISHA, priority 1990, dated 1992)

Tested on: herpes simplex 1 virus (HSV-1)
Assay: Plaque reduction test of antiviral activity in Vero cells
Type: cell-based
Settings: Vero cells infected with 100-150 PFU; agar overlay with test compound; 37°C for 72 hours; plaque count
Protocol: Antiviral activity against herpes simplex 1 virus (HSV-1), which is a DNA virus, was tested by the following method. Vero cells (originating from kidney cells of African Green Monkey) spread in a monolayer onto 6-wells multiplate were infected with 100-150 PFU (Plaque Forming Units) of the virus. After a 1-hour adsorption period at 37°C, an agar medium (Eagle's minimum essential medium containing 1.5% agar) containing respective concentrations of the test compound (obtained in Example 4) was overlaid thereonto, and cultured in a 5% (V/V) carbon dioxide incubator at 37°C for 72 hours. The number of plaques formed was counted, from which the 50% inhibition concentration (IC₅₀) was determined.

## CC(O)C1C(CO)CC1n1cnc2c(=O)[nH]c(N)nc21 (single isomer, unassigned) [4-2, 9-[(1β,2α,3β)-2-(1-hydroxyethyl)-3-hydroxymethyl-1-cyclobutyl]guanine-(2)]
  IC₅₀ (µg/ml) (HSV-1): 0.163 µg/mL

## CC(O)C1C(CO)CC1n1cnc2c(=O)[nH]c(N)nc21 (single isomer, unassigned) [4-1, 9-[(1β,2α,3β)-2-(1-hydroxyethyl)-3-hydroxymethyl-1-cyclobutyl]guanine-(1)]
  IC₅₀ (µg/ml) (HSV-1): 45.2 µg/mL
